The results in this text go back to US12240846B2 (Enliven Inc., priority 2020, dated 2025).

One experiment deals with K562 cells. Put plainly: K562 cell proliferation assay (CellTiter-Glo). It counts as cell-based. The conditions noted are these: Homo sapiens, K562 cell viability, 72 hours, read-out: Cell Line (IC50, nM) K562. On the technique in general: Cellular ATP, detected with luciferase, serves as a proxy for viable cell number.
Experiment [1] deals with pCRKL in Ba/F3 ABL1 (T315I) cells. Put plainly: pCRKL ELISA assay in Ba/F3 ABL1 (T315I) cells. It counts as cell-based. The following applies: Mus musculus, BaF3, 1.5 h, 90 minutes incubation, read-out: pCRKL ELISA, Cell Line IC50 (nM) Ba/F3 ABL1 (T315I). As for the experimental part: (§1) K562 or Ba/F3 ABL T315I cells (2.0*10^5 cells/100 μl/well) were seeded in 96 well (Corning, cat #3799). Compounds were dissolved in DMSO, serially diluted in DMSO and then were added, mixed, and incubated for 90 minutes at 37° C., 5% CO2. Following the 90-minute incubation, plates were centrifuged for 5 min at 3000 RPM and supernatant was removed from each well. Cells were washed 3 times with 150 μl PBS prior to addition of 100 μl cell RIPA lysis buffer (Boston BioProducts, cat #BP-115D) supplied with 1× complete ULTRA cocktail inhibitor (Roche, 05892791001) and 1× PhosSTOP Phosphatase Inhibitor Cocktail Tablets (Roche, 04906837001). Cells were incubated with lysis buffer for 1 hour at 4° C. prior to storage at −80C.
(§2) A capture antibody able to detect phosphorylated and non-phosphorylated CRKL (R&D Systems, cat #AF5127) was added to Meso Scale Discovery (MSD) standard bind plates (MSD, cat #L15XA-3) at 5 ug/mL and incubated at 4° C. overnight. The next day, plates were washed with PBS+ 0.05% Tween20 (PBST) and 150 μl of 5% BSA blocking solution was added for 1 hour at room temperature with shaking. Plates were washed with PBST. Lysates were thawed and 30 μl of lysate was added to the MSD plates and incubated for 2 hours at room temperature with shaking. MSD plates were washed with PBST and 30 μl of a detection antibody that binds phosphorylated pCRKL (R&D Systems, cat #MAB6910) was added at 1 ug/mL to each well. Plates were incubated for 1 hour at room temperature with shaking. Plates were washed with PBST prior to addition of 30 μl of a sulfo tagged goat anti mouse detection antibody (MSD cat #R32AC-1). Plates were incubated for 1 hour at room temperature with shaking. Plates were washed with PBST prior to addition of 150 ul of 1×MSD read buffer T (MSD, cat #R92TC-2). Electrochemiluminescence (ECLU) was read on an MSD plate reader (Meso Scale Discovery). The remaining activity by calculated as follows: % Relative activity=100× (ELCUsample−ECLULC)/(ECLUHC−ECLULC). The low and high controls (LC/HC) are generated from lysate from wells without cells or with cells treated with 0.1% DMSO, respectively. IC50 values were calculated using XLFit software using a nonlinear regression model with a sigmoidal dose response and are shown in Table 4 and Table 5 below.

The target of the next experiment is T1, ABL1 (Homo sapiens, UniProt P00519).
T1 construct: purchased Carna Biosciences
Description: Luminescence-based ABL kinase assay (300 μM ATP), ADP-Glo. Format: biochemical. An excerpt: Compounds were serially diluted in DMSO. […] Luminescence signal positively correlates with kinase activity.

For a further experiment, the system named is pCRKL in K562 cells. Description: pCRKL ELISA assay in K562 cells. Format: cell-based. The conditions noted are these: Homo sapiens, 1.5 h, 90 minutes incubation, read-out: pCRKL ELISA, Cell Line IC50 (nM) K562. The procedure: as §1, §2
(An ELISA detects its analyte on a solid surface through an enzyme-linked reagent.)

The next experiment addresses ABL1 (T315I) (Homo sapiens, UniProt P00519, T315I). Put plainly: Luminescence-based ABL kinase assay (300 μM ATP), ADP-Glo. It counts as biochemical.
In another experiment the test system is HL60 cells. Description: HL60 cell proliferation assay (CellTiter-Glo). It counts as cell-based. The conditions noted are these: Homo sapiens, HL-60, HL60 cell viability, 72 hours, read-out: Cell Line (IC50, nM) HL60.

In the case of `COc1ncc(F)c(OC)c1-c1cc2cc(NC(=O)[C@H]3C[C@@H]3CN3CCN(C)CC3)ncc2n1C` (single isomer, unassigned) [Compound 128], the IC50 is 28.6 nM with K562 cells; 171 nM in experiment [1]; 13.4 nM against ABL1; 61.8 nM in the experiment with pCRKL in K562 cells; 12.9 nM at ABL1 (T315I); > 10000 nM with HL60 cells.
For the compound `COc1cc(C)nc(OC)c1-c1cc2cc(NC(=O)[C@@H]3C[C@@H]3F)ncc2n1C` [Compound 98, (1S,2S)-N-(2-(2,4-dimethoxy-6-methylpyridin-3-yl)-1-methyl-1H-pyrrolo[2,3-c]pyridin-5-yl)-2-fluorocyclopropane-1-carboxamide], the IC50 with K562 cells worked out at 63 nM; in experiment [1], 253 nM; against ABL1, 11.6 nM; with pCRKL in K562 cells, 99.4 nM; at ABL1 (T315I) it was 38.8 nM; with HL60 cells, 605 nM.
With `COc1ccnc(OC)c1-c1cc2cc(NC(=O)[C@@H]3C[C@@H]3F)ncc2n1C` [Compound 75, (1S,2S)-N-[2-(2,4-dimethoxypyridin-3-yl)-1-methylpyrrolo[2,3-c]pyridin-5-yl]-2-fluorocyclopropane-1-carboxamide], the IC50 in the experiment with K562 cells turned out to be 11.6 nM; in experiment [1], 93.2 nM; at ABL1 it was 8.65 nM; with pCRKL in K562 cells, 45.3 nM; against ABL1 (T315I), 13.6 nM; in the experiment on HL60 cells, 682 nM.
With `COc1nc(C)nc(OC)c1-c1cc2cc(NC(=O)[C@@H]3C[C@@H]3F)ncc2n1C` [Compound 72, (1S,2S)-N-[2-(4,6-dimethoxy-2-methylpyrimidin-5-yl)-1-methylpyrrolo[2,3-c]pyridin-5-yl]-2-fluorocyclopropane-1-carboxamide], the IC50 with K562 cells worked out at 38.7 nM; in experiment [1], 1140 nM; against ABL1, 37.1 nM; with pCRKL in K562 cells, 137 nM; at ABL1 (T315I), 54.7 nM; with HL60 cells it was 3130 nM.
Regarding `COc1nc(N)nc(OC)c1-c1cc2cc(NC(=O)[C@@H]3C[C@@H]3F)ncc2n1C` [Compound 103, (1S,2S)-N-(2-(2-amino-4,6-dimethoxypyrimidin-5-yl)-1-methyl-1H-pyrrolo[2,3-c]pyridin-5-yl)-2-fluorocyclopropane-1-carboxamide], the IC50 in the experiment on K562 cells turned out to be 17.7 nM; in experiment [1], 172 nM; on ABL1, 3.98 nM; in the experiment with pCRKL in K562 cells it was 35.5 nM; at ABL1 (T315I) it was 7.85 nM; with HL60 cells, 385 nM.
Consider `COc1ncc(F)cc1-c1cc2cc(NC(=O)[C@@H]3C[C@@H]3F)ncc2n1C` [Compound 76, (1S,2S)-2-fluoro-N-[2-(5-fluoro-2-methoxypyridin-3-yl)-1-methylpyrrolo[2,3-c]pyridin-5-yl]cyclopropane-1-carboxamide], for which the IC50 stood at 200 nM in the experiment with K562 cells; 194 nM in experiment [1]; 46.7 nM against ABL1; 326 nM in the experiment with pCRKL in K562 cells; 55.4 nM against ABL1 (T315I); 6240 nM with HL60 cells.
